Test results from US5362729A, “Dihydropyridine derivatives useful in antitumor therapy” (Farmitalia Carlo ERBA S.r.l., priority 1991, dated 1994).
Where two headings read alike, the source gives them in different places.

Legend:
[1] = tested on: LoVo/DX cells; test: single-cell plating technique, colony-inhibiting efficacy of Doxorubicin alone or in combination on Doxorubicin-resistant cells; type: cell-based, human
Experimental: (§1) LoVo and LoVo/DX cells (human colon adenocarcinoma cell lines sensitive and resistant to Doxorubicin, respectively) were maintained at 37° C. in a humidified atmosphere of 5% CO2. Culture medium was Ham's F12 supplemented with 10% foetal calf serum, 1% vitamins (BME vitamin solution 100 X), and 1% glutamine (200 mM). Both cell lines were passaged twice weekly.
(§2) Doxorubicin, from Farmitalia Carlo erba, was dissolved in sterile water, and the concentrations were checked spectro-photometrically. Solutions of the compounds of the invention using ethanol were prepared immediately before use.
(§3) A single-cell plating technique was utilized for measuring the colony-inhibiting efficacy of drugs alone or drug combinations.
(§4) Exponentially growing LoVo and LoVo/DX cells were adjusted to the concentration of 300 cells.ml^-1 and seeded in 36mm Petri dishes (2 ml/dish).
(§5) After 48h incubation, medium was withdrawn and solutions of invention compounds alone, or Doxorubicin alone or solutions of the combination of both compounds, were added. […]
(§6) Survival was determined as the percentage of colonies in treated samples vs untreated ones. For combination of the compounds of the invention and doxorubicin, survival was calculated using as controls the number of colonies in samples treated with compounds of the invention alone.

[2] = tested on: LoVo cells; test: single-cell plating technique, colony-inhibiting efficacy of Doxorubicin alone or in combination on Doxorubicin-sensitive cells; type: cell-based, human; conditions: Doxorubicin alone
Experimental: as §1, §2, §3, §4, §5, §6

[3] = orientative acute toxicity after single oral administration to mice; conditions: mouse, in vivo, assessed on the seventh day
Experimental: Mice which had been deprived of food for nine hours were treated orally with single administrations of increasing doses of compounds of the invention, then housed and normally fed. For example the orientative acut toxicity (LD50) of the compound FCE 24265, assessed on the seventh day after treatment, was higher than 800 mg/kg. In view of their low toxicity the compounds of the invention can be safely used in medicine.

Row | SMILES | R.I. (Resistance Index) ([1]; Doxorubicin alone, LoVo/DX vs LoVo cells, 240 min) | IC50 ([1]; Homo sapiens, LoVo/DX, 4 h, read-out: IC50 = Concentration inhibiting 50% of colony formation) [µg/mL] | IC50 [2] [µg/mL] | IC50 ([2]; Homo sapiens, LoVo, read-out: IC50) [µg/mL] | LD50 at 168 h [3] [mg/kg]
1 | COc1cccc2c1C(=O)c1c(O)c3c(c(O)c1C2=O)C[C@@](O)(C(=O)CO)C[C@@H]3O[C@H]1C[C@H](N)[C@H](O)[C@H](C)O1 [Doxorubicin] | 49.1 | 4.91 | 0.1 | ~0.1 | –
2 | CCOC(=O)C1=C(C)NC(C)=C(C(=O)OCC)C1c1cccc(-n2ccnc2)c1 [FCE 24265, 1,4-Dihydro-2,6-dimethyl-4-[3-(1H-imidazol-1-yl)phenyl]-3,5-pyridinedicarboxylic acid, diethyl ester] | – | – | – | – | > 800
